Measured values taken from patent US20210113529A1, “MEDICINE FOR PREVENTING OR TREATING OPHTHALMIC DISEASE ASSOCIATED WITH ENHANCED INTRAOCULAR NEOVASCULARIZATION AND/OR INTRAOCULAR VASCULAR PERMEABILITY” (KYOTO UNIVERSITY, priority 2018, published 2021).

Tests used:
[1] = test system: laser-induced choroidal neovascularization (CNV) model; test: Laser-induced CNV model: fluorescein angiography (FA) grade; type: in vivo, mice; conditions: 0.03 mg/kg or 0.3 mg/kg orally once daily, each group; Day 14 after laser irradiation
Description: A Mydrin-P ophthalmic solution (Santen Pharmaceutical Co., Ltd., Mydrin is a trademark) was dropped into the right eye of 8-week-old mice (Japan SLC, Inc., C56BL/6J strain) to cause mydriasis. A solution obtained by diluting a 7:1 mixed anesthetic solution of ketamine and xylazine 10-fold with physiological saline was administered at 10 mL/kg into the femoral muscle. After that, a 0.1% Hyalein (trademark) ophthalmic solution (Santen Pharmaceutical Co., Ltd.) was dropped into the eye so as to prevent the eyeball from drying. […]
Sampling was performed on the 14th day after the laser irradiation. The mice were anesthetized with 10 mL/kg of a solution obtained by diluting a 7:1 mixed anesthetic solution of ketamine and xylazine 10-fold with physiological saline, and then 0.1 mL of a 10-fold dilution of fluorescein (Alcon Japan Ltd.) was administered into the tail vein of the mice, followed by fluorescence fundus photography using Micron 4 (Phoenix Research Laboratories, Inc. Pleasanton, Calif., USA).
In FIG. 1 (a), Day 0 indicates images taken on the day of the laser irradiation, and Day 14 indicates images taken on the 14th day. In addition, for the image of each group on Day 14, an FA grade was determined for each laser irradiation site in accordance with grade criteria shown in Table 1 to evaluate the leakage of a fluorescent dye from a neovascularization site. […]

Body weight in CNV model = type: in vivo, mice; conditions: oral once daily dosing, vs vehicle group
Source text: A case in which FA was unable to be performed owing to cloudiness caused by a flaw in the eye produced before the FA evaluation and a case in which CNV was connected at the time of the evaluation of the area of CNV were excluded from analysis, and the above-mentioned results were each calculated as a mean of 11 or 12 mice in each group. […] A case in which FA was unable to be performed owing to cloudiness caused by a flaw in the eye produced before the FA evaluation and a case in which CNV was connected at the time of the evaluation of the area of CNV were excluded from analysis, and the above-mentioned results were each calculated as a mean of 12 mice in each group.

[2] = test system: lymphocytes in the peripheral blood; test: Lymphocyte count in peripheral blood, ddy strain mice; type: in vivo; conditions: 0.03 mg/kg orally twice at an interval of 12 hours, 24 hours from second administration
Description: Next, 7-week-old mice (Japan SLC, Inc., ddy strain) were orally administered Compound 1 suspended in a vehicle (0.5% MC solution) at a dose of 0.03 mg/kg or 0.3 mg/kg (in terms of free form) twice at an interval of 12 hours in the same manner as in Example 2. A control was administered only the vehicle (vehicle group). Experiments were performed using 6 mice in each group. After 24 hours from the second administration, blood was collected from the abdominal vena cava under isoflurane anesthesia using a heparin-treated syringe, and was mixed with EDTA.2K (1 mg). The lymphocyte count in the collected blood was measured using XT-2000iv (Sysmex Corporation).

S1P1 receptor = S1P1 receptor (Homo sapiens, UniProt P21453); conditions: GTP[γ35S] binding assay; report PLoS One, 2014, 9(10), e110819; read-out: EC50 for S1P1 receptor agonist activity; cited from earlier work
Sequence of S1P1 receptor (P21453 whole entry): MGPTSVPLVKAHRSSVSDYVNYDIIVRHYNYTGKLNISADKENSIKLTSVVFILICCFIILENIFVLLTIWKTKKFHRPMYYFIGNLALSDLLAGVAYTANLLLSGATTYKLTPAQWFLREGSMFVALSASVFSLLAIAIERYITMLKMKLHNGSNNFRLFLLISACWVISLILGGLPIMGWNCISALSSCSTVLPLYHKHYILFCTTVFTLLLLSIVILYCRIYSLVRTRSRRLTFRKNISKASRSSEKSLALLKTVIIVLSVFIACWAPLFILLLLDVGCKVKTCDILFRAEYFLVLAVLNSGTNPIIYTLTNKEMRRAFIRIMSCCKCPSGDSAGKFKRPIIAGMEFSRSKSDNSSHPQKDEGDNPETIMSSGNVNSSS

S1P2 receptor = S1P2 receptor (Homo sapiens, UniProt O95136); conditions: GTP[γ35S] binding assay; report PLoS One, 2014; cited from earlier work
Sequence of S1P2 receptor (O95136 whole entry): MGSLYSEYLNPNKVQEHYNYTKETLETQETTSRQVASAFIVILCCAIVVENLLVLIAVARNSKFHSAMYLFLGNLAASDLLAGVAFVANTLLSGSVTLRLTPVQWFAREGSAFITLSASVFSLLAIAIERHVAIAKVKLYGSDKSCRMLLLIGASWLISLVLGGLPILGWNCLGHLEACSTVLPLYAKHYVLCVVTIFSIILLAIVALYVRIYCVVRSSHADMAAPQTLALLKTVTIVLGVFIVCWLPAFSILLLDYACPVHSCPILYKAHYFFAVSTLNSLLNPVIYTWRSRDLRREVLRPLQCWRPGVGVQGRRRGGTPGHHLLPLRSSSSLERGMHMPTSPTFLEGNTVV

S1P3 receptor = S1P3 receptor (Homo sapiens, UniProt Q99500); conditions: GTP[γ35S] binding assay; report PLoS One, 2014; cited from earlier work
Sequence of S1P3 receptor (Q99500 whole entry): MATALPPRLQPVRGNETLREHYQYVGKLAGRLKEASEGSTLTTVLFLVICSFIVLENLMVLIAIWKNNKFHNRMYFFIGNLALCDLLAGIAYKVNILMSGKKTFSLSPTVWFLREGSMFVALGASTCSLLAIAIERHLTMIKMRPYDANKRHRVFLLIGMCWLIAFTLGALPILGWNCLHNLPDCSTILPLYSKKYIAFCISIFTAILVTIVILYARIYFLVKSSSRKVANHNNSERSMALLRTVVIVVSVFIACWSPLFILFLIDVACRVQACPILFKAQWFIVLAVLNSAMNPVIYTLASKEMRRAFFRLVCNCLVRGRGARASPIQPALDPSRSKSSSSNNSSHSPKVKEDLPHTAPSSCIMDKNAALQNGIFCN

S1P4 receptor = target: T1, S1P4 receptor (Homo sapiens, UniProt O95977); conditions: GTP[γ35S] binding assay; report PLoS One, 2014; cited from earlier work
T1 sequence (O95977 1-384): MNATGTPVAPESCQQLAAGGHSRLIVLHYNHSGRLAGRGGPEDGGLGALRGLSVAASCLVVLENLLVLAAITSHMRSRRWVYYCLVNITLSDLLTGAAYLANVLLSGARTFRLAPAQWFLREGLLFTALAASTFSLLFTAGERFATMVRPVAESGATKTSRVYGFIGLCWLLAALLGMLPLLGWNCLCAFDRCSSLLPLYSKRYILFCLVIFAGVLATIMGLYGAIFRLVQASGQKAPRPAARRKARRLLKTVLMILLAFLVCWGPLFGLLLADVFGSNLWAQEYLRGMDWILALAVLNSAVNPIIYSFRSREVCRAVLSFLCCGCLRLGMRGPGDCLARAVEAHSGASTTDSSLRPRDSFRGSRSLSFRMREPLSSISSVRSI

C[C@H](Oc1ccc(-c2nc(-c3ccc4[nH]cnc4c3)no2)cc1C(F)(F)F)C(F)(F)F.Cl [Compound 1, 5-{5-[3-(trifluoromethyl)-4-{[(2S)-1,1,1-trifluoropropan-2-yl]oxy}phenyl]-1,2,4-oxadiazol-3-yl}-1H-benzimidazole monohydrochloride]
FA grade as compared to the vehicle group [1]: significantly lowered
change in body weight between the groups before sampling (Body weight in CNV model): a significant change in body weight between the groups before sampling was not found
lymphocytes in the peripheral blood [2]: did not cause a significant decrease in lymphocytes in the peripheral blood
EC50 (S1P1 receptor): 7.4 nM
EC50 for S1P2 receptor agonist activity as compared to that for the S1P1 receptor (S1P2 receptor): ≥ 100 fold
EC50 for S1P3 receptor agonist activity as compared to that for the S1P1 receptor (S1P3 receptor): ≥ 100 fold
EC50 for S1P4 receptor agonist activity as compared to that for the S1P1 receptor (S1P4 receptor): ≥ 100 fold
